Measurements reported in US9493455B2, “Azaindole derivatives as inhibitors of protein kinases” (ORIBASE PHARMA, priority 2012, dated 2016).

How the values were obtained:
[1] = tested on: HepG2 cells; assay: Xenograft mouse model, human hepatocellular carcinoma; format: in vivo, mice
Protocol: (§1) Several xenograft mouse models were prepared: • 1) imatinib-resistant leukemia by subcutaneously implanting Ba/F3 T315I cells (1×10^8 cell/mL in sterile PBS), into the right flank of athymic nude male mice (HSD, 6-7 weeks old). When the tumor volume reached approximately 50 mm^3, mice were assigned randomly to either vehicle alone or OR0512 treatment groups (five mice per group). Mice were treated with either vehicle (DMSO) or OR0512 (40 mg/kg q.d.; per os for 11 consecutive days). • 2) human pancreatic adenocarcinoma model by subcutaneously implanting BxPC-3 cells (1×10^7 cell/mL in sterile PBS), into the right flank of athymic nude male mice (HSD, 6-7 weeks old). […]
(§2) Tumor volumes in mm^3 were determined three times a week with a digital caliper and calculated using the following formula: Tumor Volume (mm^3)=length (mm)×width (mm)×width (mm)×½. Body weight was measured three times a week, and mice were observed daily for monitoring signs of stress to detect possible toxicities. […] Data were analyzed with Prism 5.0b (GraphPad Software) by one-way ANOVA with Bonferroni post hoc. Tumor Growth Inibition (TGI) is calculated as the percent decrease of tumor growth at the end of the study in the OR0512 treatment group in comparison to the vehicle alone treatment group.

[2] = tested on: Ba/F3 T315I cells; assay: Xenograft mouse model, imatinib-resistant leukemia (CML); format: in vivo, mice
Protocol: as §1, §2

[3] = tested on: BaF3 WT; assay: In vitro cell proliferation assay (MTT); format: cell-based; details: Mus musculus, BaF3, 72 h
In short: (§3)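 For these tumour lines, 5×10^3 cells were plated per well. Compound exposure lasted 72 hr across concentrations of 10 nM to 3 μM, with duplicate wells per concentration. Viable cell proliferation was determined by MTT assay.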

[4] = tested on: BaF3 E255K + M351T; assay: In vitro cell proliferation assay (MTT); format: cell-based; details: Mus musculus, BaF3, 72 h
In short: as §3

[5] = tested on: H1975; assay: In vitro cell proliferation assay (MTT); format: cell-based; details: Homo sapiens, NCI-H1975, 72 h
In short: as §3

[6] = tested on: HUVEC; assay: In vitro cell proliferation assay (MTT); format: cell-based; details: Homo sapiens, 72 h
Protocol: Cancer cell lines (5×10^3 cells per well) or HUVEC (1×10^4 cells per well) or HRMEC (1×10^4 cells per well) were distributed in 96-well plates and incubating in duplicate with escalating concentrations (10 nM to 3 μM) of compounds for 72 hr. Cell proliferation was measured using MTT (3 [4,5-dimethylthiazol-2-yl]-2,5-diphenyltetrazolium bromide).

[7] = tested on: HepG2; assay: In vitro cell proliferation assay (MTT); format: cell-based; details: Homo sapiens, HepG2, 72 h
In short: as §3

[8] = tested on: BaF3 T315I; assay: In vitro cell proliferation assay (MTT); format: cell-based; details: Mus musculus, BaF3, 72 h
In short: as §3

[9] = tested on: HuH7; assay: In vitro cell proliferation assay (MTT); format: cell-based; details: Homo sapiens, Huh-7, 72 h
In short: as §3

[10] = tested on: HuH6 Clone 5; assay: In vitro cell proliferation assay (MTT); format: cell-based; details: HUH-6-clone5, 72 h
In short: as §3

[11] = tested on: HRMEC; assay: In vitro cell proliferation assay (MTT); format: cell-based; details: 72 h
In short: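 Growth is assessed with the tetrazolium dye MTT following a 72 hr incubation with compound spanning 10 nM up to 3 μM, each dose tested twice on 5×10^3 plated cells per well.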

[12] = tested on: PC-3; assay: In vitro cell proliferation assay (MTT); format: cell-based; details: Homo sapiens, PC-3, 72 h
In short: as §3

[13] = tested on: HeLa; assay: In vitro cell proliferation assay (MTT); format: cell-based; details: Homo sapiens, 72 h
In short: as §3

[14] = tested on: BxPC-3; assay: In vitro cell proliferation assay (MTT); format: cell-based; details: Homo sapiens, BXPC-3, 72 h
In short: as §3

[15] = tested on: A549; assay: In vitro cell proliferation assay (MTT); format: cell-based; details: Homo sapiens, A549, 72 h
In short: as §3

[16] = tested on: MDA-MB-231; assay: In vitro cell proliferation assay (MTT); format: cell-based; details: Homo sapiens, MDA-MB-231, 72 h
In short: as §3

[17] = tested on: HT29; assay: In vitro cell proliferation assay (MTT); format: cell-based; details: Homo sapiens, HT-29, 72 h
In short: as §3

[18] = tested on: BaF3 G250A; assay: In vitro cell proliferation assay (MTT); format: cell-based; details: Mus musculus, BaF3, 72 h
In short: as §3

[19] = tested on: BaF3 G250E; assay: In vitro cell proliferation assay (MTT); format: cell-based; details: Mus musculus, BaF3, 72 h
In short: as §3

[20] = tested on: Caki-2; assay: In vitro cell proliferation assay (MTT); format: cell-based; details: Homo sapiens, CAKI-2, 72 h
In short: as §3

[21] = tested on: HuCCT1; assay: In vitro cell proliferation assay (MTT); format: cell-based; details: Homo sapiens, HuCCT-1, 72 h
In short: as §3

[22] = tested on: BxPC-3 cells; assay: Xenograft mouse model, human pancreatic adenocarcinoma; format: in vivo, mice
Protocol: as §1, §2

[23] = tested on: H1975 cells; assay: Xenograft mouse model, human NSCLC with EGFR mutations; format: in vivo, mice
Protocol: as §1, §2

For COC(=O)c1cc2cc(NCc3cc(NC(=O)c4ccc(CN5CCN(C)CC5)c(C(F)(F)F)c4)ccc3C)cnc2[nH]1 [OR0512], the “Tumor Growth Inhibition - TGI” value ([1]; HepG2 xenograft, mice, 20 mg/kg q.d. per os, 15 days, versus vehicle, **P < 0.05) was 69%**, the “decrease of tumor growth (in words)” value ([1]; xenografted mice, human hepatocellular carcinoma model) was “significantly induced a decrease of tumor growth” and the “Tumor Growth Inhibition - TGI” value ([2]; Ba/F3 T315I xenograft, mice, 40 mg/kg q.d. per os, 11 days, versus vehicle) was 37%. The “decrease of tumor growth (in words)” value ([2]; xenografted mice, imatinib-resistant CML model expressing Bcr-Abl T315I) was “slight decrease of tumor growth”, the EC50 [3] was no more than 0.1 µM and the EC50 [4] was no more than 0.1 µM. The EC50 [5] was 0.1 to 1 µM, the EC50 [6] was no more than 0.1 µM and the EC50 [7] was no more than 0.1 µM. The EC50 [8] was no more than 0.1 µM, the EC50 [9] was no more than 0.1 µM and the EC50 [10] was no less than 1 µM. The EC50 [11] was no more than 0.1 µM, the EC50 [12] was 0.1 to 1 µM and the EC50 [13] was 0.1 to 1 µM. It also gave an EC50 [14] of no more than 0.1 µM, an EC50 [15] of no more than 0.1 µM and an EC50 [16] of no more than 0.1 µM. The EC50 [17] was 0.1 to 1 µM, the EC50 [18] was no more than 0.1 µM and the EC50 [19] was no more than 0.1 µM. The EC50 [20] was no more than 0.1 µM, the EC50 [21] was 0.1 to 1 µM and the “Tumor Growth Inhibition - TGI” value ([22]; BxPC-3 xenograft, mice, 20 mg/kg q.d. per os, 32 days, versus vehicle, **P < 0.05) was 85%**. The “decrease of tumor growth (in words)” value ([22]; xenografted mice, human pancreatic adenocarcinoma model) was “significantly induced a decrease of tumor growth”, the “Tumor Growth Inhibition - TGI” value ([23]; H1975 xenograft, mice, 20 mg/kg q.d. per os, 22 days, versus vehicle, **P < 0.05) was 73%** and the “decrease of tumor growth (in words)” value ([23]; xenografted mice, human NSCLC (mutated form of EGFR) model) was “significantly induced a decrease of tumor growth”.
